Laboratory results as given in patent US20060247320A1, “Compounds for inhibiting KSP kinesin activity” (priority 2005, published 2006).
Read-outs that look alike come from different tables or passages of the source.

Biological target: T1, KSP motor domain (Homo sapiens, UniProt P52732)
T1 sequence (P52732 18-359 limits assumed): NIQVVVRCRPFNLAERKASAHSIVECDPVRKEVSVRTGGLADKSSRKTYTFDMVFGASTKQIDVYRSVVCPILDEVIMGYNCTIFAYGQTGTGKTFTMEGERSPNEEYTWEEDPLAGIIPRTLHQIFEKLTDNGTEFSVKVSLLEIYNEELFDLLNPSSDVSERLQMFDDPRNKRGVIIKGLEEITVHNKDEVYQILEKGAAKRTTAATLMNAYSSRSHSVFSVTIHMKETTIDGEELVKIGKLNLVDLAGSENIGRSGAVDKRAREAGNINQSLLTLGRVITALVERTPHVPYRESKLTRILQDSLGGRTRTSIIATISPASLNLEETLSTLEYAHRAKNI
Assay: biochemical
Conditions: for IC50: read-out: IC50

[1] = KSP inhibitory activity, end-point assay, class symbols (Table 1)
[2] = exact IC50 values, end-point assay (Table 2)

| Compound | IC50 [1] [nM] | IC50 [2] [nM] | IC50 (nM) [1] |
| --- | --- | --- | --- |
| CC(C)(C)C1CCc2nc3sc(-c4ncc(CN)o4)cc3cc2C1 (centres unmarked) [Example 186, [2-(6-tert-Butyl-5,6,7,8-tetrahydrothieno[2,3-b]quinolin-2-yl)oxazol-5-yl]methylamine] | 1000 to 10000 |  |  |
| N#Cc1sc2nc3c(cc2c1N)CC(C1CCCCC1)CC3 (centres unmarked) [Example 18] | > 10000 |  |  |
| C[C@H]1CNCCN1C(=O)Nc1cccc([C@@H](CN)NC(=O)c2cc3cc4c(nc3s2)CC[C@@H](C(C)(C)C)C4)c1 [Example 276] | < 100 |  |  |
| CCC(C)(C)C1CCc2nc3sc(C#N)cc3cc2C1 (centres unmarked) [Example 59] | < 100 | 55 |  |
| CC(C)(C)C1CCc2nc3sc(C(=O)NCCN4CCCCC4)cc3cc2C1 (centres unmarked) [Example 198, 6-(1,1-Dimethylethyl)-5,6,7,8-Tetrahydro-N-[2-(1-Piperidinyl)ethyl]thieno[2,3-b]quinoline-2-Carboxamide] | 1000 to 10000 |  |  |
| N#Cc1sc2nc3c(cc2c1N)C/C(=C/C1CC1)CC3 [Example 37] | > 10000 |  |  |
| CC(C)C1Cc2cc3cc(C(N)=O)sc3nc2CC1C (centres unmarked) [Example 209, 6-isopropyl-7-methyl-5,6,7,8-tetrahydro-thieno[2,3,-b]quinoline-2-carboxylic acid amide] | 100 to 1000 |  |  |
| CC(C)C1CCc2cc3c(N)c(C#N)sc3nc2C1 (centres unmarked) [Example 51] | > 10000 |  |  |
| CC(C)(C)C1CCc2nc3sc(C(=O)NCCCO)cc3cc2C1 (centres unmarked) [Example 102] | 100 to 1000 |  |  |
| CC1CCc2nc3sc(C#N)c(N)c3cc2C1 (centres unmarked) [Example 13] | > 10000 |  |  |
| CN1CCN(C(=O)c2cc3cc4c(nc3s2)CCC(C(C)(C)C)C4)CC1 (centres unmarked) [Example 97] | > 10000 |  |  |
| CC(C)(C)C1CCc2nc3sc(C(=O)NCCN4CCOCC4)cc3cc2C1 (centres unmarked) [Example 194, 6-(1,1-Dimethylethyl)-5,7,8-Tetrahydro-N-[2-(4-Morpholinyl)ethyl]thieno[2,3-b]quinoline-2-Carboxamide] | 1000 to 10000 |  |  |
| Cc1nnsc1C(=O)Nc1cccc([C@@H](CN)NC(=O)c2cc3cc4c(nc3s2)CC[C@@H](C(C)(C)C)C4)c1 [Example 258] | < 100 |  |  |
| COc1ccc([C@@H](CN)NC(=O)c2cc3cc4c(nc3s2)CCC(C(C)(C)C)C4)cc1 (some centres unmarked) [Example 219] | < 100 |  |  |
| CCC(CC)(CC)C1CCc2nc3sc(C#N)c(N)c3cc2C1 (centres unmarked) [Example 5] | 1000 to 10000 |  |  |
| C[C@@H]1CN[C@@H](C)CN1C(=O)Nc1cccc([C@@H](CN)NC(=O)c2cc3cc4c(nc3s2)CC[C@@H](C(C)(C)C)C4)c1 [Example 278] | 100 to 1000 |  |  |
| CC(C)(C)C1CCc2nc3sc(C(N)=O)cc3cc2C1 (single isomer, unassigned; (-)) [Example 67, (−)-6-(1,1-dimethylethyl)-5,6,7,8-tetrahydrothieno[2,3-b]quinoline-2-carboxamide] | 100 to 1000 |  |  |
| N#Cc1sc2nc3c(cc2c1N)CC(Cc1ccccc1)CC3 (centres unmarked) [Example 31] | > 10000 |  |  |
| CC(C)(C)C1CCc2nc3sc(CNC(=O)C4CC4)cc3cc2C1 (centres unmarked) [Example 155] | 1000 to 10000 |  |  |
| CCC(C)(C)C1CCc2nc3sc(C(N)=O)cc3c(Cl)c2C1 (centres unmarked) [Example 115] | 1000 to 10000 |  |  |
| Cn1ccc(C(=O)Nc2cccc([C@@H](CN)NC(=O)c3cc4cc5c(nc4s3)CC[C@@H](C(C)(C)C)C5)c2)n1 [Example 239] | < 100 |  |  |
| CCCC1CCCc2cc3c(N)c(C#N)sc3nc21 (centres unmarked) [Example 52] | > 10000 |  |  |
| CC(C)(C)C1CCc2nc3sc(CNCc4cc5cc6c(nc5s4)CCC(C(C)(C)C)C6)cc3cc2C1 (centres unmarked) [Example 150] | 1000 to 10000 |  |  |
| CC(C)(C)[C@@H]1CCc2nc3sc(C(=O)N[C@H](CN)c4cccc(NC(=O)c5ccco5)c4)cc3cc2C1 [Example 262, 6-tert-Butyl-5,6,7,8-tetrahydrothieno[2,3-b]quinoline-2-carboxylic acid (2-amino-1-{3-[(furan-2-carbonyl)amino]phenyl}ethyl)amide] | < 100 |  |  |
| COCc1cc2cc3c(nc2s1)CCC(C(C)(C)C)C3 (centres unmarked) [Example 146] | 1000 to 10000 |  |  |

| Compound | IC50 [1] [nM] | IC50 [2] [nM] | IC50 (nM) [1] |
| --- | --- | --- | --- |
| COC(=O)[C@@H]1C[C@@H](O)CN1C(=O)c1cc2cc3c(nc2s1)CCC(C(C)(C)C)C3 (some centres unmarked) [Example 84] | 1000 to 10000 |  |  |
| N#Cc1sc2nc3c(cc2c1N)CCC(C(F)(F)F)C3 (centres unmarked) [Example 50] | > 10000 |  |  |
| CC(C)(C)C1CCc2nc3sc(C(=O)NCC4CCNCC4)cc3cc2C1 (centres unmarked) [Example 195, 6-(1,1-Dimethylethyl)-5,6,7,8-Tetrahydro-N-(4-Piperidinylmethyl)thieno[2,3-b]quinoline-2-Carboxamide] | 1000 to 10000 |  |  |
| CC(C)C(C(C)C)C1CCc2nc3sc(C#N)c(N)c3cc2C1 (centres unmarked) [Example 24] | 1000 to 10000 |  |  |
| CC(C)(C)C1CCc2nc3sc(CNC(N)=O)cc3cc2C1 (centres unmarked) [Example 156] | 100 to 1000 |  |  |
| CC(C)(C)C1CCc2nc3sc(NC(N)=O)cc3cc2C1 (centres unmarked) [Example 125, (6-tert-Butyl-5,6,7,8-tetrahydrothieno[2,3-b]quinolin-2-yl)urea] |  |  | B/C |
| CC(C)(C)C1CCc2nc3sc(C(=O)N[C@H](C(=N)N)c4ccccc4)cc3cc2C1 (some centres unmarked) [Example 172] | 100 to 1000 |  |  |
| CC(C)(C)CC(C)(C)C1CCc2nc3sc(C#N)c(N)c3cc2C1 (centres unmarked) [Example 11] | > 10000 |  |  |
| CC(C)(C)[C@@H]1CCc2nc3sc(C(=O)N[C@H](CN)c4ccc(NC(=O)c5cnccn5)cc4)cc3cc2C1 [Example 269, 6(R)-tert-Butyl-5,6,7,8-tetrahydro-thieno[2,3-b]quinoline-2-carboxylic acid (2-amino-1(S)-{4-[(pyrazine-2-carbonyl)-amino]-phenyl}-ethyl)-amide] | < 100 |  |  |
| Cc1cccc([C@@H](CN)NC(=O)c2cc3cc4c(nc3s2)CCC(C(C)(C)C)C4)c1 (some centres unmarked) [Example 220] | < 100 |  |  |
| N#Cc1sc2nc3c(cc2c1N)CN(CC1CC1)CC3 [Example 55] | > 10000 |  |  |
| CC(C)(C)C1CCc2nc3sc(C(=O)N[C@H](CN)Cc4ccccc4)cc3cc2C1 (some centres unmarked) [Example 179] | 100 to 1000 |  |  |
| CC(C)(C)C1CCc2nc3sc(C(=O)N[C@H](CN)c4ccsc4)cc3cc2C1 (stereo partly drawn) [Example 284, 6-tert-butyl-5,6,7,8-tetrahydro-thieno[2,3-b]quinoline-2-carboxylic acid (2-amino-1(S)-thiophen-3-yl-ethyl)-amide] | < 100 | 8 |  |
| CCC(C)(C)C1CCc2nc3sc(C#N)c(N)c3cc2C1 (centres unmarked) [Example 12] | < 100 |  |  |
| CCC(C)(C)C1Cc2cc3c(N)c(C#N)sc3nc2C1 (centres unmarked) [Example 38] | 1000 to 10000 |  |  |
| CC(C)(C)C1CCc2nc3sc(C(=O)N4CCCC[C@@H]4C(=O)O)cc3cc2C1 (some centres unmarked) [Example 91] | > 10000 |  |  |
| CCC(CC)C1CCc2nc3sc(C#N)c(N)c3cc2C1 (centres unmarked) [Example 26] | 100 to 1000 |  |  |
| CC(C)(C)C1CCc2nc3sc(C(=O)N4C[C@H](O)C[C@@H]4C(=O)O)cc3cc2C1 (some centres unmarked) [Example 93] | > 10000 |  |  |
| C/C=C/C=C1\CCc2nc3sc(C#N)c(N)c3cc2C1 [Example 35] | > 10000 |  |  |
| CC(C)[C@H](NC(=O)c1cc2cc3c(nc2s1)CCC(C(C)(C)C)C3)C(=N)N (some centres unmarked) [Example 171] | 1000 to 10000 |  |  |
| CC(C)(C)[C@@H]1CCc2nc3sc(C(=O)N[C@H](CN)c4cccc(NC(=O)c5cn[nH]c5)c4)cc3cc2C1 [Example 237] | < 100 | 10 |  |
| CC(C)(C)C1CCc2nc3sc(C(=O)NCCCN)cc3cc2C1 (centres unmarked) [Example 101] | 100 to 1000 |  |  |
| CC(C)(C)C1CCc2nc3sc(C(=O)NC(CN)c4ccccc4)cc3cc2C1 (centres unmarked) [Example 178] | < 100 | 25 |  |
| N#Cc1sc2nc3c(cc2c1N)CC(=O)CC3 [Example 53] | > 10000 |  |  |
